Source: ChEMBL document CHEMBL1806354 (J Med Chem, 2011)
pEC50, pIC50: −log10 of the molar value. The source made the active and inactive calls. The rule behind the calls is not given here.

Key:
Rattus norvegicus [1] = assay: Antiparkinsonian activity in 6-hydroxydopamine lesioned Sprague-Dawley rat assessed as contralateral rotations at 1.5 mg/kg, ip measured every 5 mins for 6 hrs pretreated with 5-HT1A receptor antagonist 0.1 mg/kg of WAY-100635 for 10 mins before compound challenge; format: functional, organism-based
Rattus norvegicus [2] = assay: Antiparkinsonian activity in 6-hydroxydopamine lesioned Sprague-Dawley rat assessed as contralateral rotations at 1.5 mg/kg, ip measured every 5 mins for 6 hrs pretreated with D2 receptor antagonist 2 mg/kg of spiperone for 15 mins before compound challenge; format: functional, organism-based
[3] = biological target: T1, 5-hydroxytryptamine receptor 1A (Rattus norvegicus) (UniProt P19327); assay: Decrease of 5HT1A receptor-mediated excitatory postsynaptic current amplitude in Sprague-Dawley rat median prefrontal cortex at 10 uM by whole-cell voltage clamp assay; format: tissue-based; set-up: scale not given: the % may be the effect or the level left
T1 sequence (whole entry): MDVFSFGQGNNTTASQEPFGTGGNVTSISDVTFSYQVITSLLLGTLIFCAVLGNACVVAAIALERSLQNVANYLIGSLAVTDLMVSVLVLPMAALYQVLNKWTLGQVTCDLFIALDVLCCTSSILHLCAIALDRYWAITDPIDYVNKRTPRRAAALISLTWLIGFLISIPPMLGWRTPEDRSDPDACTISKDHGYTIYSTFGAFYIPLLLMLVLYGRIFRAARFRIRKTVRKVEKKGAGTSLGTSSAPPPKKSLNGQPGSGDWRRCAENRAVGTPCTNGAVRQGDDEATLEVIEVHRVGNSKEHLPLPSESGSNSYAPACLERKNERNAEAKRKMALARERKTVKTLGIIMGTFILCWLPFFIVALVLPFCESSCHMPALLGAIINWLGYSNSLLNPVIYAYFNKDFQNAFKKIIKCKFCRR

[4] = biological target: T2, Alpha-1B adrenergic receptor (Homo sapiens, UniProt P35368); assay: Antagonist activity at adrenergic Alpha-1B receptor expressed in CHO cells assessed as inhibition of adrenaline-induced intracellular calcium after 3 to 5 mins by Fluo-4/AM assay; format: functional, cell-based
T2 sequence (P35368 whole entry): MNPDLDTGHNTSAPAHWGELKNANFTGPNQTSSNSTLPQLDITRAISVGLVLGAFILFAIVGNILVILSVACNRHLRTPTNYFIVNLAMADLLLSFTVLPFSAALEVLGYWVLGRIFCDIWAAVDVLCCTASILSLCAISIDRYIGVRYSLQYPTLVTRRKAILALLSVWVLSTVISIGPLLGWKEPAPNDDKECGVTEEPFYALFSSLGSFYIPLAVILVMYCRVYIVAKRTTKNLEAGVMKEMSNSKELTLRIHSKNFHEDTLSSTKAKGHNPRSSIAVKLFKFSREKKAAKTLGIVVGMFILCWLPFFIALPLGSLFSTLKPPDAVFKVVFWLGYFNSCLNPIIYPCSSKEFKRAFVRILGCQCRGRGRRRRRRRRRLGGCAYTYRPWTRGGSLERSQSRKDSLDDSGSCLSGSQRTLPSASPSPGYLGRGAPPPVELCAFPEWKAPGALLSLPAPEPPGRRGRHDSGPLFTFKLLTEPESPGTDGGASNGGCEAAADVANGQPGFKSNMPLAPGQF

D(2) dopamine receptor = D(2) dopamine receptor (Homo sapiens, UniProt P14416); assay: Agonist activity at dopamine D2 receptor expressed in HEK293 cells assessed as stimulation of [35S]GTPgammaS binding after 30 mins; format: functional, cell-based
[5] = biological target: T1, 5-hydroxytryptamine receptor 1A (Rattus norvegicus); assay: Decrease of 5HT1A receptor-mediated excitatory postsynaptic current amplitude in Sprague-Dawley rat median prefrontal cortex at 10 uM by whole-cell voltage clamp assay in presence of 10 uM of 5HT1A receptor antagonist WAY-100635; format: functional, tissue-based; set-up: scale not given: the % may be the effect or the level left
Rattus norvegicus [6] = assay: Agonist activity at 5HT1A receptor in lesioned striatum of rat L-DOPA-induced dyskinesia model assessed as stimulation of 8-OH-DPAT-induced [35S]GTPgammaS binding at 1.5 mg/kg administered qd for 21 days by liquid scintillation counting; format: functional, organism-based; set-up: dose 1.5 mg/kg
Rattus norvegicus [7] = assay: Antiparkinsonian effect in 6-hydroxydopamine lesioned Sprague-Dawley rat Parkinson's disease model assessed as inhibition of L-DOPA-enhanced FosB expression in striatum at 1.5 mg/kg administered qd for 21 days by Western blot analysis; format: functional, organism-based; set-up: dose 1.5 mg/kg
Rattus norvegicus [8] = assay: Antiparkinsonian effect in Parkinson's disease rat model of assessed as reduction in L-DOPA-induced dyskinesia at 0.5 to 1.5 mg/kg, ip qd for 21 days treated 15 mins before L-DOPA challenge measured on day 14, 17 and 23; format: functional, organism-based
[9] = biological target: Beta-2 adrenergic receptor (Homo sapiens, UniProt P07550); assay: Antagonist activity at adrenergic beta2 receptor expressed in HEK293 cells co-transfected with Galpha16 assessed as inhibition of adrenaline-induced intracellular calcium after 3 to 5 mins by Fluo-4/AM assay; format: functional, cell-based
[10] = biological target: T3, 5-hydroxytryptamine receptor 1A (Homo sapiens, UniProt P08908); assay: Agonist activity at 5-HT1A receptor expressed in CHO cells assessed as stimulation of [35S]GTPgammaS binding after 30 mins; format: functional, cell-based
T3 sequence (P08908 whole entry): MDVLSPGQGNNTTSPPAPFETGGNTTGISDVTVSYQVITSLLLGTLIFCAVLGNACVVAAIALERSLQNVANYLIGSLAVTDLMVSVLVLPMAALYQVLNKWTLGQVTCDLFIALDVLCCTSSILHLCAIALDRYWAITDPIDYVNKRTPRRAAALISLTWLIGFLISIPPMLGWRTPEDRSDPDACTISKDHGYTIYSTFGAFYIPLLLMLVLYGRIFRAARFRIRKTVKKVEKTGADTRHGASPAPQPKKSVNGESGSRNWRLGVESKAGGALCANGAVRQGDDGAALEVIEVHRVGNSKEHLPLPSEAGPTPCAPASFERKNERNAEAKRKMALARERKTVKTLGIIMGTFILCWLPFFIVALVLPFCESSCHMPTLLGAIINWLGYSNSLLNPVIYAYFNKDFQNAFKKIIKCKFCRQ

[11] = biological target: 5-hydroxytryptamine receptor 2A (Homo sapiens, UniProt P28223); assay: Displacement of [3H]ketanserin from 5-HT2A receptor expressed in CHO cells at 10 uM after 50 mins by beta liquid scintillation counter; format: cell-based
[12] = biological target: T1, 5-hydroxytryptamine receptor 1A (Rattus norvegicus); assay: Effect on 5HT1A receptor-mediated pair pulse ratio in Sprague-Dawley rat median prefrontal cortex at 10 uM by whole-cell voltage clamp assay; format: tissue-based
Rattus norvegicus [13] = assay: Antiparkinsonian activity in 6-hydroxydopamine lesioned Sprague-Dawley rat assessed as contralateral rotations at 0.5 to 1.5 mg/kg, ip measured every 5 mins for 6 hrs; format: functional, organism-based
Rattus norvegicus [14] = assay: Toxicity in Parkinson's disease rat model of assessed as induction of dyskinesia at 0.5 to 1.5 mg/kg, ip qd for 21 days; format: organism-based; set-up: dose 0.5-1.5 mg/kg, route intraperitoneal; conditions: in vivo, 504 h
Rattus norvegicus [15] = assay: Antiparkinsonian effect in 6-hydroxydopamine lesioned Sprague-Dawley rat Parkinson's disease model assessed as induction of FosB expression in striatum at 1.5 mg/kg administered qd for 21 days by Western blot analysis; format: functional, organism-based; set-up: dose 1.5 mg/kg

5-hydroxytryptamine receptor 2A, sequence (P28223 whole entry): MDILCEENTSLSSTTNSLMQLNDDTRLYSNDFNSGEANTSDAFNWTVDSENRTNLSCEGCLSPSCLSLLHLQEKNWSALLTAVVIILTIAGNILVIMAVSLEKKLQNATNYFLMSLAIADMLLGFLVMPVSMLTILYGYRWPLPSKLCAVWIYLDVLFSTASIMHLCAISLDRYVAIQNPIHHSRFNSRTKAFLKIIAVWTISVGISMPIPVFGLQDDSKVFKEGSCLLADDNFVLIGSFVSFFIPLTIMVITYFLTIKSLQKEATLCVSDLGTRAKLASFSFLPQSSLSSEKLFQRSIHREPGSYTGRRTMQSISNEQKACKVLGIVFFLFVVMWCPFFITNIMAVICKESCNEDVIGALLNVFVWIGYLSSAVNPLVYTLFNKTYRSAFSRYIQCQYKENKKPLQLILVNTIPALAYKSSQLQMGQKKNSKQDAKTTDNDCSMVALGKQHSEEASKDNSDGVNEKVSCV
D(2) dopamine receptor, sequence (P14416 whole entry): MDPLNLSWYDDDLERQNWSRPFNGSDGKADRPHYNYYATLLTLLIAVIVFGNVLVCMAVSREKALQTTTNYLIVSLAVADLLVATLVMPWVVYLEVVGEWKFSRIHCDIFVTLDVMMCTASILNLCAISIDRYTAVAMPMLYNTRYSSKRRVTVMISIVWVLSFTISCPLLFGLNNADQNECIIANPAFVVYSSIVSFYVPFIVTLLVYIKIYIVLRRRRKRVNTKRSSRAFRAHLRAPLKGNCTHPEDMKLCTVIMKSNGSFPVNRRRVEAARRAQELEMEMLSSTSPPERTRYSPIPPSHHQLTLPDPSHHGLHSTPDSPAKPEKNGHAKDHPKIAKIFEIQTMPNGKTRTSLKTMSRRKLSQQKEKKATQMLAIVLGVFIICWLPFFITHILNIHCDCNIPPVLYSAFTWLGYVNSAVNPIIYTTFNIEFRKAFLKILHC
Beta-2 adrenergic receptor, sequence (P07550 whole entry): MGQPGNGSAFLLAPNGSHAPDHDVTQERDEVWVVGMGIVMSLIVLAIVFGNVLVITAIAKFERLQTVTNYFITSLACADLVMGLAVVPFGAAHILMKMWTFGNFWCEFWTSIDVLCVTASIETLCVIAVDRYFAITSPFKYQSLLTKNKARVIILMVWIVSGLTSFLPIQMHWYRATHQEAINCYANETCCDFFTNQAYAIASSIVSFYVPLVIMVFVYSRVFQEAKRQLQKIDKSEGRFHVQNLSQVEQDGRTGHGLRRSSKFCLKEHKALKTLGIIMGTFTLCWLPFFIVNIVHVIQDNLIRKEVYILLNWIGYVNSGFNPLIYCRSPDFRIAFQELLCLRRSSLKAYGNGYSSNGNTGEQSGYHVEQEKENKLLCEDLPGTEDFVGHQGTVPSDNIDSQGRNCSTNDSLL

CCCN1CCc2cccc3c2[C@H]1Cc1cccc(OC(=O)CCCCC2CCSS2)c1-3 (stereo partly specified)
Activity (Rattus norvegicus [1]): Active | Activity (Rattus norvegicus [2]): inactive | Activity [3]: 63.8% | pIC50 [4]: < 5.00 | pEC50 (D(2) dopamine receptor): 6.49 | Activity [5]: 99.4% | Activity (Rattus norvegicus [6]): Active | Activity (Rattus norvegicus [7]): Active | Activity (Rattus norvegicus [8]): Active | pIC50 [9]: < 5.00 | pEC50 [10]: 6.72 | inhibition [11]: 48% | Activity [12]: 114% | Activity (Rattus norvegicus [13]): Active | Activity (Rattus norvegicus [14]): Non-toxic | Activity (Rattus norvegicus [15]): inactive
